{
  "source": "patent US20260248126A1",
  "about": "“BIOCIDE” (PURGOS APS, priority 2020, published 2026)",
  "key": {"[1]": {"test_system": "Coriolus versicolor. CTB 863 A", "experiment": "EN 113 test against wood destroying basidiomycetes (impregnated beech)", "format": "cell-based"}, "[2]": {"experiment": "Acute oral toxicity LD50", "format": "in vivo", "conditions": "worked out from rat LD50 4250 mg/kg"}, "[3]": {"test_system": "bacterial count in paint", "experiment": "In-can preservation of paint, long-time study (bacterial count over time, FIGS. 2-5)", "format": "cell-based", "procedure": "The results shown that 0.5% NBDA as sole active ingredient for in-can preservation are as successful over times up to at least as year as in-can preservation by 0.5% NBDA together with 0.5% hydrogen peroxide. FIGS. 2-4 show graphs visualizing data on long term effectivity as NBDA as an in-can additive for preservation of paint. […] In […] the development in bacterial count over time for the abovementioned additives are carried out at RT, 32° C. and 60° C. respectively. The starting point is a stained sample i.e., paint with an initial high bacteria count. […] The results shown are for the development in bacterial count over time for paint samples containing 0.5% NBDA alone and 0.5% NBDA+0.5% Hydrogen Peroxide."}},
  "note": "Entries after “also recorded” stand apart in the source; their conditions may differ.",
  "data": [
    {"smiles": "CCCCN(CCO)CCO", "note": "[NBDA, N-butyldiethanolamine]", "values": [
      {"measurement": "Toxic value, Sol. conc.", "setting": "[1]", "result": ">2.20", "unit": "% w/w"},
      {"measurement": "human consummation equivalent to LD50", "setting": "[2]", "result": 319, "unit": "gram pr 75 kg"},
      {"measurement": "long term effectivity, bacterial count over time", "setting": "[3]; initial clean sample (low bacterial count), 0.5% NBDA, FIG. 5", "result": "as effective as 0.5% NBDA+0.5% Hydrogen peroxide for preventing bacterial growth in paint samples"},
      {"measurement": "long term effectivity, bacterial count over time", "setting": "[3]; initial high count, 0.5% and 1% NBDA, RT, 32° C., 60° C., FIGS. 2-4", "result": "consistent long-term results for in-can preservation of paint; also recorded: as effective as NBDA+Hydrogen Peroxide for both NBDA concentrations at all three test temperatures long term; also recorded: highly effective as the sole biocide additive for in-can preservation of paints"},
      {"measurement": "long term effectivity, bacterial count over time", "setting": "[3]; initial high count, 0.5% and 1% NBDA, RT, 32° C., 60° C., FIGS. 2-4, listed as N-butyldiethanolamine", "result": "no bacterial growth even for sustained periods of time; also recorded: sustained effect after more than a year"}
    ]}
  ]
}
